# Results published in PubChem BioAssay (NCI).
#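 These data come from cells grown in 96-well plates and exposed to compound for 48 hours at five concentrations. Definition used: TGI = concentration required for complete inhibition of growth.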
# How the values were obtained:
# Experiment in all cases: DTP human tumour cell line panel, 48 h
# HCC-2998 colon = system: HCC-2998 colon
# HOP-92 NSCLC = system: HOP-92 NSCLC
# IGROV1 ovarian = system: IGROV1 ovarian
# MCF7 breast = system: MCF7 breast
# MDA-MB-435 = system: MDA-MB-435
# MOLT-4 leukemia = system: MOLT-4 leukemia
# NCI/ADR-RES ovarian = system: NCI/ADR-RES ovarian
# SK-OV-3 ovarian = system: SK-OV-3 ovarian
# SNB-19 CNS = system: SNB-19 CNS
# UACC-62 melanoma = system: UACC-62 melanoma
Compound,TGI (HCC-2998 colon) [µM],TGI (HOP-92 NSCLC) [µM],TGI (IGROV1 ovarian) [µM],TGI (MCF7 breast) [µM],TGI (MDA-MB-435) [µM],TGI (MOLT-4 leukemia) [µM],TGI (NCI/ADR-RES ovarian) [µM],TGI (SK-OV-3 ovarian) [µM],TGI (SNB-19 CNS) [µM],TGI (UACC-62 melanoma) [µM]
c1ccc2c(-c3csc(-c4c[nH]c5ccccc45)n3)c[nH]c2c1,> 100,> 100,> 100,> 100,> 100,41.4,> 100,> 100,> 100,> 100
BrCc1ccc(CBr)c2c1-c1c(CBr)ccc3ccc(CBr)c-2c13,> 100,> 100,> 100,> 100,> 100,> 100,> 100,> 100,> 100,> 100
CCCC(=O)OCOC(=O)N(C)N=Nc1ccc(C(=O)OCC)cc1,45.9,63.7,> 100,45.5,> 100,> 100,> 100,> 100,> 100,44.2
CN(C)CC(/C(Cc1ccccc1)=N\NC(=S)NN)c1ccccc1 (stereo not given),> 100,> 100,> 100,,,> 100,,> 100,> 100,> 100
CCOP(=O)(OCC)C(Cc1ccc(Cl)cc1)NS(=O)(=O)c1ccc(C)cc1 (stereo not given),> 100,> 100,> 100,> 100,> 100,> 100,> 100,> 100,> 100,> 100
O=C(Nc1nc2ncn(CCO)c2c(=O)[nH]1)c1ccccc1,,> 100,> 100,,,,,> 100,> 100,> 100
CC1CC(N2CCOCC2)=Nc2ccccc2N1Cc1ccccc1 (stereo not given),,,> 100,,> 100,,> 100,> 100,> 100,> 100
Cc1ccc(S(=O)(=O)NC(=O)Nc2cc(Cl)c(S(N)(=O)=O)cc2S(N)(=O)=O)cc1,,> 100,> 100,> 100,> 100,> 100,> 100,> 100,> 100,> 100
C/C(=N\NC(=S)Nc1ccc([N+](=O)[O-])cc1)c1nc2ncccc2[nH]1,10.8,18,4.75,2.38,4.42,13.3,5.22,14.7,4,
Nc1c(Cl)cc(-c2nc3ccccc3s2)cc1Cl,> 100,> 100,> 100,> 100,> 100,> 100,> 100,> 100,> 100,> 100
FC(F)(F)c1cccnc1Sc1nc2ccccc2s1,> 100,> 100,> 100,> 100,> 100,> 100,> 100,,> 100,> 100
CCC(=O)C(CCN1CCC(N2C(=O)C(CCC#N)c3ccccc32)CC1)(c1ccccc1)c1ccccc1 (stereo not given),25.2,,30.5,25.5,17.6,25,25,37.9,32,32.6
Nc1ccc(-c2nc3ccc(F)cc3s2)cc1I,> 100,> 100,> 100,> 100,> 100,> 100,> 100,> 100,> 100,> 100
O=[N+]([O-])C(=C/c1cccc2ccccc12)/C(=C\c1cccc2ccccc12)[N+](=O)[O-],5.41,4.25,4.13,16.8,6.12,8.59,5.79,19.1,11.5,3.23
Cc1cccc(CNc2ncnc3[nH]ncc23)c1,,> 100,> 100,> 100,> 100,> 100,> 100,> 100,> 100,> 100
CCCCN(C)C(=O)C1=C(C)NC(C)=C(C(=O)N(C)CCCC)C1,> 100,> 100,> 100,> 100,> 100,> 100,> 100,> 100,> 100,> 100
C=C1C2CCC3(CCC4C5(C)CCCC4(C=[N+](CCO)C5)C3C2)C1O (stereo not given),> 100,> 100,> 100,> 100,> 100,,> 100,> 100,> 100,> 100
O=c1cc(CNC2CC3CCC2C3)[nH]c(=O)[nH]1 (stereo not given),> 100,,> 100,> 100,> 100,> 100,> 100,> 100,> 100,> 100
O=c1n(-c2ccccc2)c(=O)n2c(-c3ccccc3)c(-c3ccccc3)n12,> 100,> 100,> 100,> 100,,> 100,> 100,> 100,> 100,> 100
CC(=O)Nc1ccc(S(=O)(=O)NN(C)S(=O)(=O)c2ccc(C)cc2)cc1,> 100,> 100,> 100,,,> 100,,> 100,> 100,> 100
COc1cc(-c2cc(=O)c3ccccc3[nH]2)cc(OC)c1OC,> 75,,,,,> 75,,> 75,> 75,> 75
COC(=O)[C@@]1(NC(=O)C(CC(=O)OC(C)(C)C)NC(=O)OC(C)(C)C)C[C@H]1C (stereo not given in full),> 100,,> 100,> 100,> 100,> 100,> 100,> 100,> 100,> 100
C=C(C)CCC1CC=[N+]([O-])OC1C(C)(C)C (stereo not given),> 100,> 100,> 100,89.9,40.7,> 100,67.3,> 100,,> 100
